According to ChEMBL document CHEMBL3301361, “Experimental in vitro DMPK and physicochemical data on a set of publicly disclosed compounds”:
Values after ≈ are worked out from the molar mass of the structure shown.

Columns and labels:
[1] = in vitro; conditions: human, plasma
[2] = physchem; conditions: octan-1-ol/water
[3] = physchem
[4] = in vitro; conditions: Beagle, dog, plasma
[5] = physchem; remark: listed apart in the source
[6] = in vitro; conditions: human
[7] = in vitro; conditions: SD, HW or BN, rat, plasma
[8] = in vitro; conditions: human, hepatocytes
[9] = in vitro; conditions: hepatocytes
[10] = physchem; conditions: pH 7.4 buffer

Row | Compound | fraction unbound at 5 h ([1]; PPB) | logD ([2]; pH 7.4, LogD7.4) | pKa [3] | fraction unbound at 5 h [4] | further results
1 | Cc1ccccc1S(=O)(=O)NC(=O)N1CCC(N2CCC(Oc3ccc(Cl)c(Cl)c3)CC2)CC1 | 0.105 | 1.71 | 3.4 |  | 
2 | Cc1n[nH]c(C)c1Cc1sc2c(c1C(=O)N1C[C@H](O)CO1)c(=O)n(C)c(=O)n2CC(C)C | 0.489 | 1.07 |  | 0.656 | pKa [5]: 3.4; microsomal CLint ([6]; liver microsomes): 4 µL/min/mg
3 | O=C(O)c1ccccc1Nc1cccc(C(F)(F)F)c1 [FLUFENAMIC ACID] |  |  | 3.56 |  | logD ([2]; pH 7.4): 2.01
4 | CCOC(=O)N1CCC(c2cc(=O)n(-c3ccccc3)[nH]2)CC1 |  |  | 6.8 |  | 
5 | O=C(NCC12CC3CC(CC(C3)C1)C2)c1cc(N2CCNCC2)ncc1Cl |  |  |  | 0.0736 | pKa [5]: 8.5; microsomal CLint ([6]; liver microsomes): 10 µL/min/mg
6 | Nc1ccc(S(=O)(=O)Nc2nccs2)cc1 [SULFATHIAZOLE] |  | -0.37 | 7.01 |  | 
7 | CCCC(=O)Nc1ccc(OCC(O)CNC(C)C)c(C(C)=O)c1 (stereo not drawn) [ACEBUTOLOL] |  |  |  | 0.788 | pKa [5]: 9.45; fraction unbound at 5 h [7]: 0.711
8 | O=C(O)/C=C(/c1ccccc1)C(F)(F)F |  |  | 2.41 |  | 
9 | C(=C\c1nn[nH]n1)/c1ccccc1 |  | -0.4 | 4.5 |  | 
10 | N#Cc1cccc(-c2cc(C(F)(F)F)ccc2OCC(=O)O)c1 | 0.0139 | 0.05 |  | 0.0358 | hepatocyte CLint [8]: < 3 µL/min/1e6 cells; fraction unbound at 5 h [7]: 0.035; hepatocyte CLint [9]: < 3 µL/min/1e6 cells; microsomal CLint ([6]; liver microsomes): < 3 µL/min/mg
11 | CCCc1nn(C)c2c(=O)[nH]c(-c3cc(S(=O)(=O)N4CCN(C)CC4)ccc3OCC)nc12 | 0.0447 | 2.8 |  | 0.176 | hepatocyte CLint [8]: 16.6 µL/min/1e6 cells; fraction unbound at 5 h [7]: 0.0988; hepatocyte CLint [9]: > 150 µL/min/1e6 cells; microsomal CLint ([6]; liver microsomes): 132 µL/min/mg
12 | CCN(CC)CCN1C(=O)[C@@](O)(c2ccccc2Cl)c2c1cc(C(N)=O)cc2C(F)(F)F |  |  |  | 0.19 | hepatocyte CLint [8]: 11.5 µL/min/1e6 cells; fraction unbound at 5 h [1]: 0.289; logD ([2]; pH 7.4): 2.4; fraction unbound at 5 h [7]: 0.212; hepatocyte CLint [9]: 56.2 µL/min/1e6 cells; microsomal CLint ([6]; microsomes): 93.3 µL/min/mg
13 | Cc1onc(-c2c(F)cccc2Cl)c1C(=O)N[C@@H]1C(=O)N2[C@@H]1SC(C)(C)[C@@H]2C(=O)O [FLOXACILLIN] |  |  | 2.46 |  | 
14 | COc1ccnc(NC2CCN(C(=O)c3ccc(C#N)cc3)CC2)c1 |  | 1.73 |  | 0.0532 | pKa [5]: 7.1
15 | CCn1nc(C(=O)O)c(=O)c2cc3c(cc21)OCO3 [CINOXACIN] |  |  | 4.36 |  | 
16 | COc1ccc2c(=O)cc(C(=O)O)oc2c1 |  |  | < 2 |  | 
17 | CCCc1c2c(cc3c(=O)cc(C(=O)O)oc13)CCCC2 [PROCROMIL] |  |  | < 2 |  | 
18 | O=C(O)COc1ccc([N+](=O)[O-])cc1-c1ccccc1 | 0.0041 | -0.69 | 2.7 |  | 
19 | CCN(C(=O)c1cnn(-c2ccccc2)c1NS(=O)(=O)c1ccc(-c2cnco2)cc1)C1CCCCC1 | 0.013 | 1.46 |  | 0.0025 | hepatocyte CLint [8]: 9.5 µL/min/1e6 cells; solubility thermodynamic [10]: 204 µM (≈ 106 µg/mL); fraction unbound at 5 h [7]: 0.0057; hepatocyte CLint [9]: 35 µL/min/1e6 cells; microsomal CLint ([6]; liver microsomes): 137 µL/min/mg
20 | O=C(Nc1ccc([N+](=O)[O-])cc1O)Nc1ccccc1Br | 0.0027 | 3.9 | 7.7 |  | 
21 | CCCc1c2nccc(Cl)c2cc2c(=O)cc(C(=O)O)oc12 |  |  | 2.5 |  | 
22 | CN(C(=O)c1c(O)c2ccccc2n(C)c1=O)c1ccccc1 [ROQUINIMEX] |  |  | 4.2 |  | 
23 | N#Cc1ccc(C(F)(F)F)nc1O[C@H](CCN)c1ccno1 | 0.557 | -0.49 |  | 0.535 | pKa [5]: 9.5
24 | CCCCc1oc2ccc(NS(C)(=O)=O)cc2c1C(=O)c1ccc(OCCCN(CCCC)CCCC)cc1 [DRONEDARONE] | 0.0009 |  | 7.69 |  | 
25 | CC1=NN(C(=O)CCS)C(C(=O)O)S1 (stereo not drawn) |  |  | 2.4 |  | 
26 | N#Cc1cn(Cc2ccco2)c(=O)[nH]c1=O |  |  | 6.1 |  | microsomal CLint ([6]; liver microsomes): < 3 µL/min/mg
27 | CCC(Oc1ccc(C(F)(F)F)cc1-c1ccc(S(=O)(=O)CC)cc1C)C(=O)O (stereo not drawn) |  | 0.31 | 3.4 |  | 
28 | CC1(C)S[C@@H]2[C@H](NC(=O)Cc3ccccc3)C(=O)N2[C@H]1C(=O)O [PENICILLIN G] |  |  | 3.32 |  | 
29 | Cn1c(C(=O)O)c(CCCOc2cccc3ccccc23)c2ccccc21 |  | 2.99 | 4.01 |  | 
30 | CC(=O)Nc1ccc(O)cc1 [ACETAMINOPHEN] |  | 0.25 | 9.48 |  | fraction unbound at 5 h [1]: 0.734
